What was measured:
PDGFR = PDGFR (Homo sapiens, UniProt P09619); test: PDGF-induced BrdU incorporation assay; format: cell-based; parameters: expressed in transfected cells; host or cells: 3T3; conditions: Table 6; 3T3 cells expressing human PDGF-R, PDGF 3.8 nM; read-out: PDGF-Driven BrdU Incorp. IC50
Protocol: (§1) The cellular/biologic assays described herein measure the amount of DNA made in response to activation of a test kinase, which is a general measure of a proliferative response. The general procedure for this assay is as follows: a compound is introduced to cells expressing the test kinase, either naturally or recombinantly, for some period of time after which, if the test kinase is a receptor, a ligand known to activate the receptor is added. After incubation at least overnight, a DNA labeling reagent such as Bromodeoxy-uridine (BrdU) or 3H-thymidine is added. The amount of labeled DNA is detected with either an anti-BrdU antibody or by measuring radioactivity and is compared to control cells not contacted with a test compound.
PDGF-Induced BrdU Incorporation Assay
(8) 3T3 cell line genetically engineered to express human PDGF-R.
(1) Cells are seeded at 8000 cells/well in DMEM, 10% CS, 2 mM Gln in a 96 well plate. Cells are incubated overnight at 37° C. in 5% CO2.
(§2) (2) After 24 hours, the cells are washed with PBS, and then are serum starved in serum free medium (0% CS DMEM with 0.1% BSA) for 24 hours.
(§3) (3) On day 3, ligand (PDGF, 3.8 nM, prepared in DMEM with 0.1% BSA) and test compounds are added to the cells simultaneously. The negative control wells receive serum free DMEM with 0.1% BSA only; the positive control cells receive the ligand (PDGF) but no test compound. Test compounds are prepared in serum free DMEM with ligand in a 96 well plate, and serially diluted for 7 test concentrations.
(§4) (4) After 20 hours of ligand activation, diluted BrdU labeling reagent (1: 100 in DMEM, 0.1% BSA) is added and the cells are incubated with BrdU (final concentration=10 μM) for 1.5 hours.
(§5) (10) The absorbance of the samples are measured at 410 nm (in “dual wavelength” mode with a filter reading at 490 nm, as a reference wavelength) on a Dynatech ELISA plate reader.

EGFR [1] = biological target: T1, EGFR (Homo sapiens, UniProt P00533); test: EGF-induced BrdU incorporation assay; format: cell-based; parameters: expressed in transfected cells; host or cells: 3T3; conditions: Table 6; 3T3 cells expressing human EGF-R, EGF 2 nM; read-out: EGF-Driven BrdU Incorp. IC50
T1 sequence (P00533 25-1210): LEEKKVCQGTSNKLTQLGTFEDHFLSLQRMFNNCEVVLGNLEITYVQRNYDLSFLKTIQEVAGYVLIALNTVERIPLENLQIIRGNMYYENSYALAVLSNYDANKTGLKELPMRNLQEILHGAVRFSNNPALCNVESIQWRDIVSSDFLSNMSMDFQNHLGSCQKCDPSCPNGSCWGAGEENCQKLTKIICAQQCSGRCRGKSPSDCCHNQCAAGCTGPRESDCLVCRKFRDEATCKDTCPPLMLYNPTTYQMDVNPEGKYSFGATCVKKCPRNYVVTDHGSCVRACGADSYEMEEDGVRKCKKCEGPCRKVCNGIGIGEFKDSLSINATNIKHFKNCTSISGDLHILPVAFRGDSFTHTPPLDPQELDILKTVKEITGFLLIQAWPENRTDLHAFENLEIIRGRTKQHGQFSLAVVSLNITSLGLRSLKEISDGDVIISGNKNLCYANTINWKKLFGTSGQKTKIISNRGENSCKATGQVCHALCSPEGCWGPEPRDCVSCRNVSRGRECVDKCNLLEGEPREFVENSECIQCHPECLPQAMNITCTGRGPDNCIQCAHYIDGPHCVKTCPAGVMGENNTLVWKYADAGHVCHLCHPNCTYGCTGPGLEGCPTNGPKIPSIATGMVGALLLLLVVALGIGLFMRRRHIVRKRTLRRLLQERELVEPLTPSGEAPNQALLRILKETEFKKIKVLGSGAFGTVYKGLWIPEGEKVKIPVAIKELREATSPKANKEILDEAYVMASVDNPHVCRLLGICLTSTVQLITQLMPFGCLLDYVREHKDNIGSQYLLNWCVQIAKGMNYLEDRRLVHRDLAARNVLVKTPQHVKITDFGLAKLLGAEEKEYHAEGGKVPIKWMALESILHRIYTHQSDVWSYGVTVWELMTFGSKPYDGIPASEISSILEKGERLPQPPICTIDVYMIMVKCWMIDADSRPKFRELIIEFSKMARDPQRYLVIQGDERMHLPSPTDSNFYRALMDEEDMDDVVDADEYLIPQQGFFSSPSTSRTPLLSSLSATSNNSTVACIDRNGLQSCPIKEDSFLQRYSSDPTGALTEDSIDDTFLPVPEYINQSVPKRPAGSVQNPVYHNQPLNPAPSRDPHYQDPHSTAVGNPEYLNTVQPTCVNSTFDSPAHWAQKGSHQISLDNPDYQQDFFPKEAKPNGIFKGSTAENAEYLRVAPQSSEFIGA
Protocol: as §1
EGF-Induced BrdU Incorporation Assay
(8) 3T3 cell line genetically engineered to express human EGF-R.
(1) Cells are seeded at 8000 cells/well in 10% CS, 2 mM Gin in DMEM, in a 96 well plate. Cells are incubated overnight at 37° C. in 5% CO2.
as §2
as §3, with “(EGF, 2” for “(PDGF, 3.8”, “0.1%/BSA)” for “0.1% BSA)”, “(EGF)” for “(PDGF)”
as §4, §5

Her2 [2] = biological target: T2, Her2 (Homo sapiens, UniProt P04626); test: EGF-induced Her2-driven BrdU incorporation; format: cell-based; conditions: Table 6; 3T3 cells with EGF-R/Her2 chimeric receptor, EGF 2 nM; read-out: Her2-Driven BrdU Incorp. IC50
T2 construct: fused on or other part: P00533 (Epidermal growth factor receptor)
T2 sequence (P04626 676-1255 limits assumed): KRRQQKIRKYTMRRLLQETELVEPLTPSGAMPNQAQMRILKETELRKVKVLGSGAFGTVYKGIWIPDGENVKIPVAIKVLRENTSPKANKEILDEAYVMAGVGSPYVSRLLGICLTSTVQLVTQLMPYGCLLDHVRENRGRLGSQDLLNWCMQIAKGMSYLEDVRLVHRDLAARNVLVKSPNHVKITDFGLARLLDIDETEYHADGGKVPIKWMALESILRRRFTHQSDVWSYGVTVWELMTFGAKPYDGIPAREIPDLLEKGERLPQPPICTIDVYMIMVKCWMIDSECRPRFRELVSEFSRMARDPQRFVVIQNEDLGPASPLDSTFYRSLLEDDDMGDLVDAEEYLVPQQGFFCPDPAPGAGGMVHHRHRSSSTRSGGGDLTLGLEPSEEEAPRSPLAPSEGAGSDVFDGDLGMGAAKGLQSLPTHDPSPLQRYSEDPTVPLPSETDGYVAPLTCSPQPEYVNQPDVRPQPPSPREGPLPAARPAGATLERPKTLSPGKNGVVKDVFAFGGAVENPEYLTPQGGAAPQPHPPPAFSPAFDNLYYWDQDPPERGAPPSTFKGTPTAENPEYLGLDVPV
Protocol: as §1
EGF-Induced Her2-Driven BrdU Incorporation
(8) 3T3 cell line engineered to express a chimeric receptor having the extra-cellular domain of EGF-R and the intra-cellular domain of Her2.
(1) Cells are seeded at 8000 cells/well in DMEM, 10% CS, 2 mM Gln in a 96-well plate. Cells are incubated overnight at 37° C. in 5% CO2.
as §2
as §3, with “(EGF=2” for “(PDGF, 3.8”, “(EGF)” for “(PDGF)”
(4) After 20 hours of ligand activation, diluted BrdU labeling reagent (1:100 in DMEM, 0.1% BSA) is added and the cells are incubated with BrdU (final concentration=[…]) for 1.5 hours.
as §5

EGFR [3] = biological target: T1, EGFR; test: Biochemical EGFR assay (ELISA); parameters: A431 cell lysate; endogenous in cells; host or cells: A431; conditions: Table 7, in vitro kinase activity, read-out: EGFr biochem IC50
Protocol: This assay measures the in vitro kinase activity of EGFR using ELISA.
1. Coat Coming 96 well ELISA plates with 0.5 μg SUMOl in 100 μL PBS per well, store overnight at 4° C.
5. Dilute lysate in PBS (7 μg lysate/100 μL PBS).
6. Add 100 μL of diluted lysate to each well. Shake at room temperature for 60 min.
8. Add 120 μL TBS to ELISA plate containing captured EGFR.
9. Dilute test compound 1:10 in TBS in 96-well polypropylene plates (ie. 10 μL compound+90 μL TBS).
10. Add 13.5 μL diluted test compound to ELISA plate.
13. After 5 minutes, stop reaction by adding 16.5 μL of 200 mM EDTA (pH 8.0) to each well, shaking continuously. After the EDTA has been added, shake for 1 mm.
15. Add 100 μL anti-phosphotyrosine (1:3000 dilution in TBST) per well. Incubate 30-45 min. at room temperature, with shaking.
17. Add 100 μL Biosource Goat anti-rabbit IgG peroxidase conjugate (1:2000 dilution in TBST) to each well. Incubate 30 min. at room temperature, with shaking.
19. Add 100 μL of ABTS/H2O2 solution to each well.
22. Read assay on Dynatech MR7000 ELISA reader. Test Filter: 410 nM Reference Filter: 630 Nm.

Her2 [4] = biological target: T2, Her2; test: HER-2 ELISA: EGF receptor-HER2 chimeric receptor assay in whole cells (HER2 kinase); format: cell-based; conditions: Table 7; NIH3T3 cells with EGFR/HER2 chimeric receptor, phosphotyrosine ELISA
Protocol: Assay 1: EGF Receptor-HER2 Chimeric Receptor Assay In Whole Cells.
HER2 kinase activity in whole EGFR-NIH3T3 cells was measured as described below:
1. An NIH3T3 cell line overexpressing a chimeric receptor containing the EGFR extracellular domain and intracellular HER2 kinase domain can be used for this assay.
3. Resuspend cells in seeding medium (DMEM, 0.5% bovine serum), and count the cells using trypan blue. Viability above 90% is acceptable. Seed cells in DMEM medium (0.5% bovine serum) at a density of 10,000 cells per well, 100 μL per well, in a 96 well microtiter plate. Incubate seeded cells in 5% CO2 at 37° C. for about 40 hours.
1. Check seeded cells for contamination using an inverted microscope. Dilute drug stock (10 mg/mL in DMSO) 1:10 in DMEM medium, then transfer 5 μL to a TBST well for a final drug dilution of 1:200 and a final DMSO concentration of 1%. Control wells receive DMSO alone. Incubate in 5% CO2 at 37° C. for two hours.
2. Prepare EGF ligand: dilute stock EGF in DMEM so that upon transfer of 10 μL dilute EGF (1:12 dilution), 100 nM final concentration is attained.
4. After 120 minutes incubation with drug, add prepared […] ligand to cells, 10 μL per well, to a final concentration of 100 nM. Control wells receive DMEM alone. Incubate, shaking, at room temperature, for 5 minutes.
5. Remove drug, EGF, and DMEM. Wash cells twice with PBS. Transfer HNTG* to cells, 100 μL per well. Place on ice for 5 minutes. Meanwhile, remove blocking buffer from other ELISA plate and wash with TBST as described above.
6. With a pipette tip securely fitted to a micropipettor, scrape cells from plate and homogenize cell material by repeatedly aspirating and dispensing the HNTG* lysis buffer. Transfer lysate to a coated, blocked, and washed ELISA plate. Incubate shaking at room temperature for one hour.
7. Remove lysate and wash 4 times with TBST. Transfer freshly diluted anti-Ptyr antibody to ELISA plate at 100 μL per well. Incubate shaking at room temperature for 30 minutes in the presence of the anti-Ptyr antiserum (1:3000 dilution in TBST).
8. Remove the anti-Ptyr antibody and wash 4 times with TBST. Transfer the freshly diluted TAGO anti-rabbit IgG antibody to the ELISA plate at 100 μL per well. Incubate shaking at room temperature for 30 minutes (anti-rabbit IgG antibody: 1:3000 dilution in TBST).
9. Remove TAGO detection antibody and wash 4 times with TBST. Transfer freshly prepared ABTS/H2O2 solution to ELISA plate, 100 μL per well. Incubate shaking at room temperature for 20 minutes. (ABTS/H2O2 solution: 1.0 μL 30% H2O2 in 10 mL ABTS stock).
10. Stop reaction by adding 50 μL 5N H2SO4 (optional), and determine O.D. at 410 nm.
11. The maximal phosphotyrosine signal is determined by subtracting the value of the negative controls from the positive controls. The percent inhibition of phosphotyrosine content for extract-containing wells is then calculated, after subtraction of the negative controls.

A431 = A431 growth; format: cell-based; conditions: Homo sapiens, A-431; Table 7; A431 cells
SKOV3 = SKOV3 growth; format: cell-based; conditions: Homo sapiens, SK-OV-3; Table 7; SKOV3 cells

Chain of PDGFR (P09619 33-1106): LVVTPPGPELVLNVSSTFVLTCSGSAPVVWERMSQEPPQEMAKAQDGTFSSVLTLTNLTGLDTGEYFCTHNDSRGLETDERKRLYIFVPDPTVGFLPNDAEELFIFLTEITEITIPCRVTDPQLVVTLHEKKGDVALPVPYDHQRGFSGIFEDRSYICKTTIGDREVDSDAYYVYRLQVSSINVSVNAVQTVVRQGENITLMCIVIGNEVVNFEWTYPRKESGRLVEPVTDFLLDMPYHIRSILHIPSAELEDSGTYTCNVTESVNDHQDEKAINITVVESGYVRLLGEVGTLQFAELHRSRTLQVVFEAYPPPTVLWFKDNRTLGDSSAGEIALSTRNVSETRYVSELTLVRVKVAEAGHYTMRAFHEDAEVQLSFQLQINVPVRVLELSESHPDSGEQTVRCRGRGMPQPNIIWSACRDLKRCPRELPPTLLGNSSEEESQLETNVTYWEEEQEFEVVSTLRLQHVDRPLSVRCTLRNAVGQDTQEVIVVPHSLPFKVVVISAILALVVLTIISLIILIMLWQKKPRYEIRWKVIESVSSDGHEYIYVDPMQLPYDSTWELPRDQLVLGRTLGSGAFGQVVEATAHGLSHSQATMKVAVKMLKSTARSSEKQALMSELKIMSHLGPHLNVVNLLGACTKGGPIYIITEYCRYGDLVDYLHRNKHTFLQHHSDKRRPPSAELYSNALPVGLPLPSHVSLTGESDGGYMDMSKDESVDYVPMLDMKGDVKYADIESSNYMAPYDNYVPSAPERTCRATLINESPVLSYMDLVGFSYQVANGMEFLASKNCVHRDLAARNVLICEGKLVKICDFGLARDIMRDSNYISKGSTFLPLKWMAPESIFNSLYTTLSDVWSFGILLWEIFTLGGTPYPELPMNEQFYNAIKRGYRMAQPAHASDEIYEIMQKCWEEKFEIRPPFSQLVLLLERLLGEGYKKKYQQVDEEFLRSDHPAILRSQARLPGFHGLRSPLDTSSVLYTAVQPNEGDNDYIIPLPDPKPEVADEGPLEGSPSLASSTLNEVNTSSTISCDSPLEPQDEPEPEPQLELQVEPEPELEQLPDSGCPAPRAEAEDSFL

Row | SMILES | IC50 (PDGFR) [µM] | IC50 (EGFR [1]) [µM] | IC50 (Her2 [2]) [µM] | IC50 (EGFR [3]) [µM] | IC50 (Her2 [4]) [µM] | IC50 (A431) [µM] | IC50 (SKOV3) [µM]
1 | COc1ccc(/C(=C2/C(=O)Nc3ccccc32)c2[nH]c(C)cc2C)cc1 [DAI-I, 3-[(3,5-Dimethyl-1H-pyrrol-2-yl)-(4-methoxy-phenyl)-methylene]-1,3-dihydro-indol-2-one] | 0.77 | > 50 | 46.9 | – | – | – | –
2 | COc1ccc(/C(=C2/C(=O)Nc3ccccc32)c2[nH]c(C)cc2C)cc1OC [DAI-II, 3-[(3,4-dimethoxy-phenyl)-(3,5-dimethyl-1H-pyrrol-2-yl)-methylene]-1,3-dihydro-indol-2-one] | 0.26 | 38.3 | 30.2 | – | – | – | –
3 | O=C1Cc2c(CCOC(=S)Nc3ccccc3)cccc2N1 [IN-010, Phenyl-thiocarbamic acid O-[2-(2-oxo-2,3-dihydro-1H-indol-4-yl)-ethyl]ester] | – | – | – | > 100 | > 100 | > 25 | > 25
4 | O=C1Cc2c(CCOC(=O)Nc3ccccc3)cccc2N1 [IN-011, Phenyl-carbamic acid 2-(2-oxo-2,3-dihydro-1H-indol-4-yl)-ethyl ester] | – | – | – | > 100 | > 100 | > 50 | > 50
5 | CC(C)(C)NC(=O)OCCc1cccc2c1CC(=O)N2 [IN-012, tert-Butyl-carbamic acid 2-(2-oxo-2,3-dihydro-1H-indol-4-yl)-ethyl ester] | – | – | – | > 100 | > 100 | > 50 | > 50
6 | O=C1Cc2c(CCOC(=O)NC3CCCCC3)cccc2N1 [IN-013, Cyclohexyl-carbamic acid 2-(2-oxo-2,3-dihydro-1H-indol-4-yl)-ethyl ester] | – | – | – | > 100 | > 100 | > 50 | > 50
7 | O=C1Cc2c(CCOC(=O)NS(=O)(=O)c3ccccc3)cccc2N1 [IN-014, Benzene sulfonyl-carbamic acid 2-(2-oxo-2,3-dihydro-1H-indol-4-yl)-ethyl ester] | – | – | – | > 100 | > 100 | > 50 | > 50
8 | O=C1Cc2c(CCOC(=O)Nc3ccccc3-c3ccccc3)cccc2N1 [IN-015, Biphenyl-2-yl-carbamic acid 2-(2-oxo-2,3-dihydro-1H-indol-4-yl)-ethyl ester] | – | – | – | > 100 | > 100 | 21 | 20.5
9 | CCNC(=O)OCCc1cccc2c1CC(=O)N2 [IN-016, Ethyl-carbamic acid 2-(2-oxo-2,3-dihydro-1H-indol-4-yl)-ethyl ester] | – | – | – | > 100 | > 100 | > 50 | > 50
10 | COc1ccc(OCCc2cccc3c2CC(=O)N3)cc1 [IN-017, 4-[2-(4-Methoxy-phenoxy)-ethyl]-1,3-dihydro-indol-2-one] | – | – | – | > 100 | > 100 | – | > 50
11 | CC(C)c1ccc(OCCc2cccc3c2CC(=O)N3)cc1 [IN-020, 4-[2-(4-Isopropyl-phenoxy)-ethyl]-1,3-dihydro-indol-2-one] | – | – | – | > 100 | > 100 | 15.2 | > 50
